Laboratory results reported in the supplement of paper PMC10307832.

Columns and labels:
Experiment in all cases: relative viability (nuclei count vs DMSO), 5 days (fraction); higher = more cells survive
[1] = test system: NCI-H1793
How it was run: (§1)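 Dosing by pin tool came one day after lung cancer cell lines were seeded in 1536-well plates, using either one drug or a fixed anchor-drug dose plus five library-drug doses (not always all listed) in √10 steps. After 5 days, nuclei were counted on 4× images. Relative viability is treated-well nuclei count divided by vehicle-well nuclei count, and values are medians of duplicate plates.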

[2] = test system: NCI-H2347
How it was run: as §1

[3] = test system: NCI-H2009
How it was run: as §1

[4] = test system: NCI-H838
How it was run: as §1

[5] = test system: NCI-H2170
How it was run: as §1

[6] = test system: SK-MES-1
How it was run: as §1

[7] = test system: NCI-H1355
How it was run: as §1

[8] = test system: NCI-H1993
How it was run: as §1

[9] = test system: HCC-15
How it was run: as §1

[10] = test system: NCI-H2228
How it was run: as §1

[11] = test system: NCI-H522
How it was run: as §1

In the case of Cc1sc2c(c1C)C(c1ccc(Cl)cc1)=N[C@@H](CC(=O)OC(C)(C)C)c1nnc(C)n1-2 [JQ1] + Cc1nc(Nc2ncc(C(=O)Nc3c(C)cccc3Cl)s2)cc(N2CCN(CCO)CC2)n1 [Dasatinib] (partner 0.075 µM), the relative viability ([1]; first compound 0.04 µM) is reported as 0.312, the relative viability ([1]; first compound 0.1265 µM) is reported as 0.345 and the relative viability ([1]; first compound 0.4 µM) is reported as 0.435. For the same molecule, the relative viability ([1]; first compound 1.265 µM) was 0.385, the relative viability ([1]; first compound 4 µM) was 0.418 and the relative viability ([2]; first compound 0.04 µM) was 0.273. For the same molecule, the relative viability ([2]; first compound 0.1265 µM) was 0.395, the relative viability ([2]; first compound 0.4 µM) was 0.304 and the relative viability ([2]; first compound 1.265 µM) was 0.371. The relative viability ([2]; first compound 4 µM) was 0.235, the relative viability ([3]; first compound 0.04 µM) was 0.258 and the relative viability ([3]; first compound 0.1265 µM) was 0.156. The relative viability ([3]; first compound 0.4 µM) was 0.196, the relative viability ([3]; first compound 1.265 µM) was 0.154 and the relative viability ([3]; first compound 4 µM) was 0.185. For the same molecule, the relative viability ([4]; first compound 0.04 µM) was 0.294, the relative viability ([4]; first compound 0.1265 µM) was 0.217 and the relative viability ([4]; first compound 0.4 µM) was 0.264. For the same molecule, the relative viability ([4]; first compound 1.265 µM) was 0.229, the relative viability ([4]; first compound 4 µM) was 0.201 and the relative viability ([5]; first compound 0.04 µM) was 0.57. For the same molecule, the relative viability ([5]; first compound 0.1265 µM) was 0.47, the relative viability ([5]; first compound 0.4 µM) was 0.392 and the relative viability ([5]; first compound 1.265 µM) was 0.334. For the same molecule, the relative viability ([5]; first compound 4 µM) was 0.305, the relative viability ([6]; first compound 0.04 µM) was 0.338 and the relative viability ([6]; first compound 0.1265 µM) was 0.273. It also gave a relative viability ([6]; first compound 0.4 µM) of 0.311, a relative viability ([6]; first compound 1.265 µM) of 0.168 and a relative viability ([6]; first compound 4 µM) of 0.171. The relative viability ([7]; first compound 0.04 µM) was 0.774, the relative viability ([7]; first compound 0.1265 µM) was 0.578 and the relative viability ([7]; first compound 0.4 µM) was 0.617. It also gave a relative viability ([7]; first compound 1.265 µM) of 0.486, a relative viability ([7]; first compound 4 µM) of 0.447 and a relative viability ([8]; first compound 0.04 µM) of 0.574. For the same molecule, the relative viability ([8]; first compound 0.1265 µM) was 0.798, the relative viability ([8]; first compound 0.4 µM) was 0.597 and the relative viability ([8]; first compound 1.265 µM) was 0.532. The relative viability ([8]; first compound 4 µM) was 1.44, the relative viability ([9]; first compound 0.04 µM) was 0.524 and the relative viability ([9]; first compound 0.4 µM) was 0.5. For the same molecule, the relative viability ([9]; first compound 1.265 µM) was 0.339, the relative viability ([9]; first compound 4 µM) was 0.227 and the relative viability ([10]; first compound 0.04 µM) was 0.416. For the same molecule, the relative viability ([10]; first compound 0.1265 µM) was 0.476, the relative viability ([10]; first compound 0.4 µM) was 0.515 and the relative viability ([10]; first compound 1.265 µM) was 0.189. For the same molecule, the relative viability ([10]; first compound 4 µM) was 0.245, the relative viability ([11]; first compound 0.04 µM) was 0.951 and the relative viability ([11]; first compound 0.1265 µM) was 0.641. For the same molecule, the relative viability ([11]; first compound 0.4 µM) was 0.584, the relative viability ([11]; first compound 1.265 µM) was 0.575 and the relative viability ([11]; first compound 4 µM) was 0.537.
